For assay [1], the system named is HeLa. Description: Antiproliferative activity against human HeLa cells after 4 days by Coulter counter method. The class given is functional, cell-based. Conditions: 96 h.
The target of assay [2] is T1, NAD-dependent protein deacetylase sirtuin-2 (Homo sapiens) (UniProt Q8IXJ6).
T1 sequence (whole entry): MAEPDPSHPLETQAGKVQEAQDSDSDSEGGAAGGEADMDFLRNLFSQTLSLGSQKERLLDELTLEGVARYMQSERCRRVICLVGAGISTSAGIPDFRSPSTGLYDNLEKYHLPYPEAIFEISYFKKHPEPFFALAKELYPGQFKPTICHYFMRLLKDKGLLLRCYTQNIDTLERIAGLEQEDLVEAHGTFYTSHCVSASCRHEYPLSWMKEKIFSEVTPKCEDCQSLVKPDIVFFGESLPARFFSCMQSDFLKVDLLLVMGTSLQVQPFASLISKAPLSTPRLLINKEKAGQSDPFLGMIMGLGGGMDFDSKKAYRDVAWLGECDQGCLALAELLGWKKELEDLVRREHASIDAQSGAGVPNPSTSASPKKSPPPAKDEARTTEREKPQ
Description: Inhibition of SIRT2 (unknown origin) using KI179 as substrate preincubated at 200 uM for 5 mins before substrate addition measured after 1 hr by Fluor de Lys fluorescence assay.

For assay [3], the target named is DNA topoisomerase 2-alpha (Homo sapiens) (UniProt P11388). Description: Stabilization of recombinant human topoisomerase 2-pBR322 DNA cleavage complex assessed as linear DNA formation at 100 uM after 60 mins by agarose gel electrophoresis.
Assay [4] concerns L1210. The assay can be described thus: Antiproliferative activity against mouse L1210 cells after 48 hrs by Coulter counter method. The class given is functional, cell-based. Conditions: L1210, 48 h.
The target in assay [5] is T2, DNA topoisomerase 1 (Homo sapiens) (UniProt P11387).
T2 sequence (whole entry): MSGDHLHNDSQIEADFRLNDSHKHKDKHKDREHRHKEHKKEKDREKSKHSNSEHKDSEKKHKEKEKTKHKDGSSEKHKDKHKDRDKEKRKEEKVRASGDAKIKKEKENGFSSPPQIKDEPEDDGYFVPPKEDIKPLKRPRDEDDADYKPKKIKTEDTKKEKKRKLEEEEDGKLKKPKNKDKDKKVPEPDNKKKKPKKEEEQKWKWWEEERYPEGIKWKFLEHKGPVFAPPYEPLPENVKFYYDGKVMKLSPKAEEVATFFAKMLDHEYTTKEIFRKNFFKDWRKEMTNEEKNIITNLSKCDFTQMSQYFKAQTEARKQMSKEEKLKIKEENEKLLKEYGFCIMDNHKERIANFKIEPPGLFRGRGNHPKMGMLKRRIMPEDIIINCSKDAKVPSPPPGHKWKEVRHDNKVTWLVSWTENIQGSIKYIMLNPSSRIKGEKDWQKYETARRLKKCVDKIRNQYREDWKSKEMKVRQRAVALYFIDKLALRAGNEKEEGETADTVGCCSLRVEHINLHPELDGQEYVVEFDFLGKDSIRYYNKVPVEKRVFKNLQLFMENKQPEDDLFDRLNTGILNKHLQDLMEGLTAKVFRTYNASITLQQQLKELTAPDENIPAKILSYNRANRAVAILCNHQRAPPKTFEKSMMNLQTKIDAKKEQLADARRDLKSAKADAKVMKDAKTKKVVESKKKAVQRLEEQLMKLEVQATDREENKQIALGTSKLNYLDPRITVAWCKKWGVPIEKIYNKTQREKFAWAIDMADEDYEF
Description: Inhibition of recombinant human topoisomerase 1-mediated relaxation of supercoiled pBR322 DNA at 10 uM after 60 mins by agarose gel electrophoresis.

Assay [6] has as its target T2, DNA topoisomerase 1 (Homo sapiens). The assay can be described thus: Stabilization of recombinant human topoisomerase 1-pBR322 DNA cleavage complex assessed as linear DNA formation at 0.5 uM after 60 mins by agarose gel electrophoresis.
Assay [7] addresses DNA topoisomerase 2-alpha (Homo sapiens) (UniProt P11388). Description: Inhibition of recombinant human topoisomerase 2-mediated relaxation of supercoiled pBR322 DNA at 10 uM after 60 mins by agarose gel electrophoresis.
The test system of assay [8] is CCRF-CEM. The assay can be described thus: Antiproliferative activity against human CEM cells after 96 hrs by Coulter counter method. The class given is functional, cell-based.
Assay [9] has as its target DNA topoisomerase 2-alpha (Homo sapiens) (UniProt P11388). The assay can be described thus: Inhibition of recombinant human topoisomerase 2-mediated relaxation of supercoiled pBR322 DNA after 60 mins by agarose gel electrophoresis.
Assay [10] in a line: Antiproliferative activity against human HMEC1 cells after 4 days by Coulter counter method. The class given is functional, cell-based. The following applies: HMEC-1, 96 h.
Assay [11] deals with DNA topoisomerase 2-alpha (Homo sapiens) (UniProt P11388). Description: Inhibition of recombinant human topoisomerase 2-mediated relaxation of supercoiled pBR322 DNA at 50 uM after 60 mins by agarose gel electrophoresis.
For assay [12], the target named is T3, NAD-dependent protein deacetylase sirtuin-1 (Homo sapiens) (UniProt Q96EB6).
T3 sequence (whole entry): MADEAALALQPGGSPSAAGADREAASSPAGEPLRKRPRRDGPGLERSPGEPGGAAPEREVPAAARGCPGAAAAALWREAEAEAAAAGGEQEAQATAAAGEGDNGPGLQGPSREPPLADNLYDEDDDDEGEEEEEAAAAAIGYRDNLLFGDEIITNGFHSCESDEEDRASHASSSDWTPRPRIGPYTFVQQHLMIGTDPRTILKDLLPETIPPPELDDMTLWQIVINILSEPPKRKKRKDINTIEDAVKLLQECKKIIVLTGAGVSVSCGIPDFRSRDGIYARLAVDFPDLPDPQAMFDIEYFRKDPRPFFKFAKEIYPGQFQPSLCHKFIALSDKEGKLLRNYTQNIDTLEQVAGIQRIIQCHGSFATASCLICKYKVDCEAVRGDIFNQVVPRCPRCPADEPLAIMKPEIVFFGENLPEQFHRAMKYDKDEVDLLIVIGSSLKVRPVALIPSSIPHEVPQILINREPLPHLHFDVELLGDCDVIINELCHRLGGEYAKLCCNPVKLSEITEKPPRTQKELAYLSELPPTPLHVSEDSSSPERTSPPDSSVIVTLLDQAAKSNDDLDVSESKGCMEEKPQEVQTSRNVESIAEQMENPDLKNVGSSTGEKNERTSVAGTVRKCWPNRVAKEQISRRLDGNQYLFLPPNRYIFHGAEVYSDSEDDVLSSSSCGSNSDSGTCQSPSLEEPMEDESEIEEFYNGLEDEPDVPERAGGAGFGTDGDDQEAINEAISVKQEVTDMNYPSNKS
The assay can be described thus: Inhibition of SIRT1 (unknown origin) using KI177 as substrate preincubated at 200 uM for 5 mins before substrate addition measured after 1 hr by Fluor de Lys fluorescence assay.

A short description of assay [13]: Antiproliferative activity against bovine BAEC cells after 3 days by Coulter counter method. The class given is functional, cell-based. Conditions: Bos taurus, 72 h.
The target in assay [14] is DNA topoisomerase 2-alpha (Homo sapiens) (UniProt P11388). The assay can be described thus: Stabilization of recombinant human topoisomerase 2-pBR322 DNA cleavage complex assessed as linear DNA formation at 10 uM after 60 mins by agarose gel electrophoresis.

Activity calls are given as the source filed them. No cut-off for these calls is given here.

Sequence of DNA topoisomerase 2-alpha (Homo sapiens) (P11388 whole entry): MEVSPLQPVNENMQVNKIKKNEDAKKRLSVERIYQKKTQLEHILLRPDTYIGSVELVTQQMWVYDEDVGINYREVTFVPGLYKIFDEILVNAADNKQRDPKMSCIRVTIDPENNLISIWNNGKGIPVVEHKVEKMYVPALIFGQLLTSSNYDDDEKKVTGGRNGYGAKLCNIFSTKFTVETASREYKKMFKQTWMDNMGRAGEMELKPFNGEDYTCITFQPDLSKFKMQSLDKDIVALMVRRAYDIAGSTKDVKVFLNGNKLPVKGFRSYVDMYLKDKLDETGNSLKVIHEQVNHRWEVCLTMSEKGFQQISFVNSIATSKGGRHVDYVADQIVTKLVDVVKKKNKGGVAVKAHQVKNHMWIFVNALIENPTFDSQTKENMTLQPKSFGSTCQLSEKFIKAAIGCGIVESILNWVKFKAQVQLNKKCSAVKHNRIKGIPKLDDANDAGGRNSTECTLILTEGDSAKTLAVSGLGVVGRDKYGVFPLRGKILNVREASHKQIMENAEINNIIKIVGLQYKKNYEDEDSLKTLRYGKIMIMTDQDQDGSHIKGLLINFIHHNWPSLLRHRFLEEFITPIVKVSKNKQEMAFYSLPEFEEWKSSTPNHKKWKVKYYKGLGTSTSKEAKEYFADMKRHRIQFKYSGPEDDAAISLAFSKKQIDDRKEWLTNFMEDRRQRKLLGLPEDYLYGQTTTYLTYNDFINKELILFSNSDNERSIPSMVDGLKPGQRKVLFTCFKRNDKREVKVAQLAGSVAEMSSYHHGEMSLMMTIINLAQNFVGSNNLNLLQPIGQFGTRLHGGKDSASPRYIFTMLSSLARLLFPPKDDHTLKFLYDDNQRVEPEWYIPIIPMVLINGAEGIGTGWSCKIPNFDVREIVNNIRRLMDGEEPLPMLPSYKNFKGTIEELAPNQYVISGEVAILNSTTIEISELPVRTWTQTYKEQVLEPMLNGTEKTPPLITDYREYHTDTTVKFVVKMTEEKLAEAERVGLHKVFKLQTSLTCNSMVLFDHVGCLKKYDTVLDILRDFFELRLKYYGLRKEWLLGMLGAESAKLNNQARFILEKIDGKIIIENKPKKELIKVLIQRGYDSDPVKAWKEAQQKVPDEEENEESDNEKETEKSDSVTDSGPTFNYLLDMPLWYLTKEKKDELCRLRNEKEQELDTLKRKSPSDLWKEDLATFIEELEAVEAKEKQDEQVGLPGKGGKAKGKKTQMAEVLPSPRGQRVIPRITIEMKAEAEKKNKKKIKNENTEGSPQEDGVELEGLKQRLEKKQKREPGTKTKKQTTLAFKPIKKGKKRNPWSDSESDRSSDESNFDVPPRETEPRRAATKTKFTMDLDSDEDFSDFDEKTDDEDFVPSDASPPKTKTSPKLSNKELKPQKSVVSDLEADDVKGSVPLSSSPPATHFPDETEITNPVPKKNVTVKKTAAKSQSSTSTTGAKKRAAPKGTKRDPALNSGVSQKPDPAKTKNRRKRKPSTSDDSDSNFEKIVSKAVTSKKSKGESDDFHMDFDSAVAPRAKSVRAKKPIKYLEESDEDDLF

A word on the IC50: it is the concentration that gives 50% inhibition. Low values mean greater potency, high ones weaker potency. By inhibition is commonly meant the percentage by which the read-out fell short of the control. Regarding `COc1ccc2c3c(c4cc(OC)c(OC)cc4c2c1)CN1CCCC[C@@H]1C3`, the half-inhibitory concentration (IC50) stood at 66 nM in assay [1]; 19 nM in assay [4]; 185 nM in assay [8]; 7.4 nM in [10]; 23 nM in assay [13]. The inhibition was 65% in assay [2], “Dose-dependent effect” in [9] and 12% in assay [12]. The result in assay [3] and in assay [6] was inactive. For the same molecule, the inhibition result in [5] and in assay [11] was “Active” each time. Moreover, the inhibition entry in assay [7] is “inactive”.

For `CC[C@@]1(O)C(=O)OCc2c1cc1n(c2=O)Cc2cc3ccccc3nc2-1`, the result in assay [6] was Active.

Turning to `COc1cc(NS(C)(=O)=O)ccc1Nc1c2ccccc2nc2ccccc12`, in assay [14], the result was Active.

As for `COc1ccc2c3c(c4cc(OC)c(OC)cc4c2c1)CN1CCCCC1C3` (racemic), the IC50 stood at 76 nM in assay [1]; 71 nM in assay [4]; 119 nM in assay [8]; 29 nM in assay [10]; 9 nM in [13].

Turning to `COc1ccc(/C=C\c2cc(OC)c(OC)c(OC)c2)cc1OP(=O)(O)O` [FOSBRETABULIN DISODIUM], the IC50 in assay [1] is 79 nM; in assay [4], 82 nM; in assay [8] it was 95 nM; in assay [10], 2.9 nM; in assay [13], 3.9 nM.

Regarding `COc1ccc2c3c(c4cc(OC)c(OC)cc4c2c1)CN1CCCC[C@H]1C3`, the half-inhibitory concentration (IC50) was found to be 182 nM in assay [1]; 111 nM in [4]; 201 nM in assay [8]; 82 nM in assay [10]; 23 nM in assay [13]. Moreover, the inhibition in assay [2] is 41%; in assay [9] it was “Dose-dependent effect”; in assay [12] it was 10%. The result in assay [3] and in [6] was inactive. Moreover, the inhibition result in assay [5] and in [11] was “Active” each time. Besides, the inhibition result in assay [7] was “inactive”.

Source of the values: ChEMBL document CHEMBL3407358, “Boehmeriasin A as new lead compound for the inhibition of topoisomerases and SIRT2” (Eur J Med Chem, 2015).
